≈ marks a conversion by molar mass, not a printed value. Where two headings read alike, the source gives them in different places.
How the values were obtained:
[1] = Solubility measurements in injection media (excess powder, HPLC); assay type: physicochemical; settings: for solubility at 72 h: thermodynamic from solid; for aqueous solubility as times that of the parent drug (PTX): relative to PTX 0.4 μg/mL
Description: The flow rate was 1 mL/min, with the mobile phase starting at 50% acetonitrile and 50% water and transitioning to 60% acetonitrile and 40% water at 13 min, then returning to 50% acetonitrile and 50% water at 25 min. Chromatographic peaks of the three compounds were identified based on their retention times and chromatographic responses. Peak area measurements were utilized to regress calibration curves to determine each compound.
The test system was shaken at 25 °C for 72 h, then centrifugated at 10,000 rpm for 10 min. Each supernate was collected and 0.22 μm filtered off, then determined by HPLC.

[2] = Log P by miniaturized shake flask method (n-octanol/water); assay type: physicochemical; settings: shaken 24 h, mean ± SD, n = 4
Description: Log P and was determined by a miniaturized shake flask method. Briefly, the organic phase consisted of n-octanol saturated with water. Respectively, the aqueous phase consisted of water saturated with n-octanol.

[3] = system: breast cancer cells MDA-MB-231; test: MTT cytotoxicity assay; assay type: cell-based; settings: Homo sapiens
Description: (§1) In vitro anti-cancer effects against cancer cells and safety to normal cells of the prodrugs were evaluated by cytotoxicity.
(§2) MDA-MB-231 cells were seeded in a 96-well transparent plate, at a density of 5000 cells/well. […] After 72 h incubation, the plates were washed with HBSS and MTT solution was added. The final concentration of MTT in each well was 0.5 mg/mL. Then 4 h later, the solution on the plate was removed and the content was dissolved with DMSO [33].The absorption was measured at 490 nm and cell viability was calculated, cell viability% = OD of treated cells/OD of untreated cells × 100% [51].

[4] = system: normal breast cells Hs578Bst; test: MTT cytotoxicity assay; assay type: cell-based
Description: as §1, §2

[5] = system: ovarian cancer cells A2780; test: MTT cytotoxicity assay; assay type: cell-based; settings: Homo sapiens
MDA-MB-231 cells = test: Annexin V-FITC/PI apoptosis assay (flow cytometry); assay type: cell-based; settings: MDA-MB-231, 1 μM, 24 h
Description: Cell apoptosis was tested by an Annexin V-FITC/PI staining assay and analyzed by flow cytometry, the result is illustrated in Figure 6. According to Figure 6a, the four regions represent different cell stages. Q1 represents necrotic cells ([…]), Q2 and Q3 represent late apoptotic cells (Annexin V+/PI+) and early apoptotic cells (Annexin V+/PI–), and Q4 represents normal cells (Annexin V–/PI–).
MDA-MB-231 cells were seeded in a 6-well transparent plate, at a density of 5 × 10^5 cells/well. […] After 24 h incubation, the cells were harvested by trypsin, washed with HBSS, and 1 mL of binding buffer (containing Annexin V-FITC and PI) was added, final concentration of Annexin V-FITC and PI were both 1 μg/mL [52]. After that, the test system was incubated in the dark for 10 min, then analysis was immediately conducted by flow cytometry. The fluorescence intensity of Annexin V-FITC was measured at an excitation/emission wavelength of 488/530 nm, the fluorescence intensity of PI was measured at an excitation/emission wavelength of 488/617 nm. Each assay was repeated in triplicate.

[6] = Solubility of SG-PTX at various pH conditions; assay type: physicochemical
Description: An aqueous solution of different pH was adjusted by HCl or NaOH, Excess powder of SG-PTX was added to solutions of different pH, respectively. The test system was shaken at 25 °C for 72 h, then centrifugation at 10,000 rpm for 10 min. Each supernate was collected and 0.22 μm filtered off, then determined by HPLC.

[7] = Solubility of SG-PTX in various formulations (surfactant solutions); assay type: physicochemical; settings: for solubility at 72 h: 25 °C, aqueous with cosolvent or surfactant or cyclodextrin, thermodynamic from solid, no ethanol, read-out: solubility in formulation
Description: Solubility of SG-PTX in various formulations was tested, SG-PTX was added into formulations with different proportion (v/v) of water and surfactants. These solubility tests were carried out according to the same protocol as aqueous solubility assays.
Solutions of different surfactants (Cremophor EL, Tween-80, and PEG-400) were prepared at different concentrations of 2.5%, 5%, 10%, and 15% (v/v). Excess powder of SG-PTX was added into different formulations, respectively. The test system was shaken at 25 °C for 72 h, then centrifugation at 10,000 rpm for 10 min. Each supernate was collected and 0.22 μm filtered off, then determined by HPLC.

[8] = cited from earlier work
[9] = 25 °C, saline or isotonic, 5% glucose solution, 25 °C, shaken 72 h, mean ± SD, n = 4, read-out: Solubility, 5% Glucose
[10] = 25 °C, saline or isotonic, saline, 25 °C, shaken 72 h, mean ± SD, n = 4, read-out: Solubility, Saline
[11] = 25 °C, water, pure water, 25 °C, shaken 72 h, mean ± SD, n = 4, read-out: Solubility, Pure Water

Work on `CC(=O)O[C@H]1C(=O)[C@@]2(C)[C@H]([C@H](OC(=O)c3ccccc3)[C@]3(O)C[C@H](OC(=O)[C@H](OC(=O)CCC(=O)OC4O[C@H](CO)[C@@H](O)[C@H](O)[C@H]4O)[C@@H](NC(=O)c4ccccc4)c4ccccc4)C(C)=C1C3(C)C)[C@]1(OC(C)=O)CO[C@@H]1C[C@@H]2O` (stereo partly shown) [SG-PTX, C2′-single glycosylated paclitaxel] yielded a solubility at 72 h [1, 9] of 17.9 ± 0.28 µg/mL (≈ 16 µM), a solubility at 72 h [1, 10] of 17.83 ± 0.09 µg/mL (≈ 16 µM) and a solubility at 72 h [1, 11] of 17.9 µg/mL (≈ 16 µM). For the same compound, the “Solubility, Pure Water” value ([1]; pure water, 25 °C, shaken 72 h, mean ± SD, n = 4) was 19.93 ± 4.07 µg/mL (≈ 17.9 µM), the “aqueous solubility as times that of the parent drug (PTX)” value [1] was 49.8 times and the logP at 24 h [2] was 2.77 ± 0.16. It also gave an IC50 ([3]; MDA-MB-231, 72 h) of 149 nM, an IC50 ([4]; Hs578Bst, 72 h) of 1670 nM and an IC50 ([5]; A2780, 72 h) of 1080 nM. For the same compound, the “total percentage of apoptotic cells (late apoptosis + early apoptosis)” value (shortened to “total percentage of apoptotic cells”) (MDA-MB-231 cells) was 21.23%, the solubility at 72 h ([6]; aqueous solution, pH adjusted with HCl or NaOH, aqueous buffer, thermodynamic from solid, pH 9 and pH 10, water and two common injection media, 25 °C) was ~27 µg/mL (≈ 24.2 µM) and the “change of solubility with pH” value ([6]; pH level of 1 to 8) was “no significant change”. The solubility at 72 h ([7]; 2.5% (v/v) Cremophor EL in water) was 807 µg/mL (≈ 723 µM), the solubility at 72 h ([7]; 2.5% (v/v) Tween-80 in water) was 468 µg/mL (≈ 419 µM) and the solubility at 72 h ([7]; 15% (v/v) Cremophor EL in water) was 1320 µg/mL (≈ 1180 µM). The solubility at 72 h ([7]; 15% (v/v) Tween-80 in water) was 961 µg/mL (≈ 861 µM) and the solubility in formulation ([7]; PEG-400 in water, compared with Cremophor EL and Tween-80) was “the lowest”.

Compound `CC(=O)O[C@H]1C(=O)[C@]2(C)[C@@H](OC(=O)CCC(=O)OC3O[C@H](CO)[C@@H](O)[C@H](O)[C@H]3O)C[C@H]3OC[C@@]3(OC(C)=O)[C@H]2[C@H](OC(=O)c2ccccc2)[C@]2(O)C[C@H](OC(=O)[C@H](OC(=O)CCC(=O)OC3O[C@H](CO)[C@@H](O)[C@H](O)[C@H]3O)[C@@H](NC(=O)c3ccccc3)c3ccccc3)C(C)=C1C2(C)C` (stereo partly shown) [DG-PTX, C7 and C2′-double glycosylated paclitaxel] has a solubility at 72 h [1, 9] of 34.8 ± 4.22 µg/mL (≈ 25.2 µM), a solubility at 72 h [1, 10] of 36.7 ± 2.05 µg/mL (≈ 26.6 µM) and a solubility at 72 h [1, 11] of 39 ± 5.66 µg/mL (≈ 28.3 µM). The “aqueous solubility as times that of the parent drug (PTX)” value [1] was 97.4 times, the logP at 24 h [2] was 2.12 ± 0.08 and the IC50 ([3]; MDA-MB-231, 72 h) was 395 nM. The IC50 ([4]; Hs578Bst, 72 h) was > 2000 nM, the IC50 ([5]; A2780, 72 h) was 1610 nM and the “total percentage of apoptotic cells” value (MDA-MB-231 cells) was 14.6%.

For `CC(=O)O[C@H]1C(=O)[C@@]2(C)[C@H]([C@H](OC(=O)c3ccccc3)[C@]3(O)C[C@H](OC(=O)[C@H](O)[C@@H](NC(=O)c4ccccc4)c4ccccc4)C(C)=C1C3(C)C)[C@]1(OC(C)=O)CO[C@@H]1C[C@@H]2O` [PTX, Paclitaxel, reference compound], the solubility at 72 h ([1]; 5% glucose solution, 25 °C, saline or isotonic, 5% glucose solution, 25 °C, shaken 72 h, mean ± SD, n = 4, read-out: Solubility, 5% Glucose) was < 1 µg/mL, the solubility at 72 h ([1]; pure water, 25 °C, water, pure water, 25 °C, shaken 72 h, mean ± SD, n = 4, read-out: Solubility, Pure Water) was < 1 µg/mL and the solubility at 72 h ([1]; saline, 25 °C, saline or isotonic, saline, 25 °C, shaken 72 h, mean ± SD, n = 4, read-out: Solubility, Saline) was < 1 µg/mL. It also gave an IC50 ([3]; MDA-MB-231, 72 h incubation, MTT, read-out: IC50) of 30.5 nM, an IC50 ([4]; Hs578Bst normal breast cells, 72 h incubation, MTT, read-out: IC50) of 632 nM and an IC50 ([5]; A2780, 72 h incubation, MTT, read-out: IC50) of 194 nM. For the same compound, the “total percentage of apoptotic cells” value (MDA-MB-231 cells) was 37.5% and the “Log P” value [8] was 3.97 [27].

— publication PMC6321537 (Molecules, 2018)
